Laboratory results as given in ChEMBL document CHEMBL1201862, “PubChem BioAssay data set” (2004).
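Method: 48-hour compound exposure of cells in 96-well plates, five concentrations, linear interpolation of endpoints. The concentration for 50% growth inhibition is given as GI50.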 Active and inactive are the calls of the source. Rule as the data show it: active = GI50 up to about 1.1 µM and inactive = higher.

Tests used:
Experiment in all cases: DTP human tumour cell line panel, 48 h
[1] = tested on: 786-0
[2] = tested on: A498
[3] = tested on: A549
[4] = tested on: ACHN
[5] = tested on: CAKI-1
[6] = tested on: CCRF-CEM
[7] = tested on: COLO 205
[8] = tested on: DLD-1
[9] = tested on: DMS-114
[10] = tested on: DMS-273
[11] = tested on: EKVX
[12] = tested on: HCC 2998
[13] = tested on: HCT-116
[14] = tested on: HCT-15
[15] = tested on: HL-60
[16] = tested on: HOP-18
[17] = tested on: HOP-62
[18] = tested on: HOP-92
[19] = tested on: HT-29
[20] = tested on: IGROV-1
[21] = tested on: K562
[22] = tested on: KM-20L2
[23] = tested on: KM12
[24] = tested on: LOX IMVI
[25] = tested on: M14
[26] = tested on: M19-MEL
[27] = tested on: MOLT-4
[28] = tested on: Malme-3M
[29] = tested on: NCI-H226
[30] = tested on: NCI-H23
[31] = tested on: NCI-H460
[32] = tested on: OVCAR-3
[33] = tested on: OVCAR-4
[34] = tested on: OVCAR-5
[35] = tested on: OVCAR-8
[36] = tested on: RXF 393
[37] = tested on: SF-268
[38] = tested on: SF-295
[39] = tested on: SF-539
[40] = tested on: SK-MEL-28
[41] = tested on: SK-MEL-2
[42] = tested on: SK-MEL-5
[43] = tested on: SK-OV-3
[44] = tested on: SN12C
[45] = tested on: SNB-19
[46] = tested on: SNB-75
[47] = tested on: SNB-78
[48] = tested on: SW-620
[49] = tested on: TK-10
[50] = tested on: U-251
[51] = tested on: UACC-257
[52] = tested on: UACC-62
[53] = tested on: UO-31
[54] = tested on: XF498
[55] = tested on: NCI-H522
[56] = tested on: RPMI-8226
[57] = tested on: SR
[58] = tested on: LXFL 529

COCCOCOc1ccc(OCOCCOC)c2c1C(=O)c1ccccc1C2=O
GI50 [1]: 92.9 µM (inactive)
GI50 [2]: 68.7 µM (inactive)
GI50 [3]: 46.6 µM (inactive)
GI50 [4]: 62.7 µM (inactive)
GI50 [5]: 33.7 µM (inactive)
GI50 [6]: 27 µM (inactive)
GI50 [7]: 54.1 µM (inactive)
GI50 [8]: 26.3 µM (inactive)
GI50 [9]: 3.19 µM (inactive)
GI50 [10]: 49.1 µM (inactive)
GI50 [11]: 38.3 µM (inactive)
GI50 [12]: 61.7 µM (inactive)
GI50 [13]: 29.4 µM (inactive)
GI50 [14]: 30.3 µM
GI50 [15]: 18.4 µM (inactive)
GI50 [16]: 77.1 µM (inactive)
GI50 [17]: > 100 µM (inactive)
GI50 [18]: > 79.6 µM (inactive)
GI50 [19]: 37.2 µM (inactive)
GI50 [20]: 99.1 µM (inactive)
GI50 [21]: 24.7 µM (inactive)
GI50 [22]: 32 µM (inactive)
GI50 [23]: > 75.9 µM (inactive)
GI50 [24]: 27.9 µM (inactive)
GI50 [25]: > 100 µM (inactive)
GI50 [26]: 16.7 µM (inactive)
GI50 [27]: 21.6 µM (inactive)
GI50 [28]: 41.5 µM (inactive)
GI50 [29]: 90.2 µM (inactive)
GI50 [30]: 74.1 µM (inactive)
GI50 [31]: 24.3 µM (inactive)
GI50 [32]: 36.9 µM (inactive)
GI50 [33]: 59.4 µM (inactive)
GI50 [34]: > 100 µM (inactive)
GI50 [35]: 45.4 µM (inactive)
GI50 [36]: 29.4 µM (inactive)
GI50 [37]: 31.3 µM (inactive)
GI50 [38]: > 100 µM (inactive)
GI50 [39]: 36.3 µM (inactive)
GI50 [40]: > 100 µM (inactive)
GI50 [41]: > 74.1 µM (inactive)
GI50 [42]: 51.8 µM (inactive)
GI50 [43]: > 100 µM (inactive)
GI50 [44]: 51.4 µM (inactive)
GI50 [45]: > 87.9 µM (inactive)
GI50 [46]: 99.3 µM (inactive)
GI50 [47]: > 63.1 µM (inactive)
GI50 [48]: 36.5 µM (inactive)
GI50 [49]: > 73.6 µM (inactive)
GI50 [50]: 41.9 µM (inactive)
GI50 [51]: 42.8 µM (inactive)
GI50 [52]: 47.6 µM (inactive)
GI50 [53]: 28.7 µM (inactive)
GI50 [54]: > 100 µM (inactive)

C=CCOCCC(CC=C)C(=O)CC(=O)OC (centres undefined)
GI50 [2]: > 100 µM (inactive)
GI50 [3]: > 100 µM (inactive)
GI50 [4]: > 100 µM (inactive)
GI50 [6]: 4.23 µM (inactive)
GI50 [8]: > 100 µM (inactive)
GI50 [10]: 45.3 µM (inactive)
GI50 [11]: > 100 µM (inactive)
GI50 [12]: > 100 µM (inactive)
GI50 [13]: 45.6 µM (inactive)
GI50 [14]: > 100 µM
GI50 [15]: 13.5 µM (inactive)
GI50 [16]: > 100 µM (inactive)
GI50 [17]: > 100 µM (inactive)
GI50 [18]: 90.4 µM (inactive)
GI50 [19]: > 100 µM (inactive)
GI50 [20]: > 100 µM (inactive)
GI50 [21]: 19.3 µM (inactive)
GI50 [22]: > 100 µM (inactive)
GI50 [23]: > 100 µM (inactive)
GI50 [24]: 27.9 µM (inactive)
GI50 [25]: > 100 µM (inactive)
GI50 [27]: 28.5 µM (inactive)
GI50 [28]: > 100 µM (inactive)
GI50 [29]: > 100 µM (inactive)
GI50 [30]: > 100 µM (inactive)
GI50 [31]: > 100 µM (inactive)
GI50 [55]: > 100 µM (inactive)
GI50 [32]: > 100 µM (inactive)
GI50 [33]: > 100 µM (inactive)
GI50 [34]: > 100 µM (inactive)
GI50 [35]: > 100 µM (inactive)
GI50 [56]: 25.3 µM (inactive)
GI50 [36]: > 100 µM (inactive)
GI50 [37]: > 100 µM (inactive)
GI50 [38]: > 100 µM (inactive)
GI50 [39]: > 100 µM (inactive)
GI50 [40]: > 100 µM (inactive)
GI50 [41]: > 100 µM (inactive)
GI50 [42]: > 100 µM (inactive)
GI50 [43]: > 100 µM (inactive)
GI50 [44]: > 100 µM (inactive)
GI50 [45]: > 100 µM (inactive)
GI50 [46]: 25.9 µM (inactive)
GI50 [57]: 3.56 µM (inactive)
GI50 [48]: > 100 µM (inactive)
GI50 [49]: > 100 µM (inactive)
GI50 [50]: > 100 µM (inactive)
GI50 [51]: > 100 µM (inactive)
GI50 [52]: 52.8 µM (inactive)
GI50 [53]: > 100 µM (inactive)
GI50 [54]: > 100 µM (inactive)

Cc1ccccc1NC(=O)C(=O)CC(=O)c1c(C)[n+]([O-])c2ccccc2[n+]1[O-]
GI50 [1]: > 100 µM (inactive)
GI50 [2]: > 100 µM (inactive)
GI50 [3]: > 100 µM (inactive)
GI50 [4]: > 100 µM (inactive)
GI50 [5]: > 100 µM (inactive)
GI50 [7]: > 100 µM (inactive)
GI50 [8]: > 100 µM (inactive)
GI50 [9]: > 100 µM (inactive)
GI50 [10]: > 100 µM (inactive)
GI50 [11]: > 100 µM (inactive)
GI50 [12]: > 100 µM (inactive)
GI50 [13]: > 100 µM (inactive)
GI50 [14]: > 100 µM
GI50 [16]: > 100 µM (inactive)
GI50 [17]: > 100 µM (inactive)
GI50 [19]: > 100 µM (inactive)
GI50 [20]: > 100 µM (inactive)
GI50 [21]: > 100 µM (inactive)
GI50 [22]: > 100 µM (inactive)
GI50 [23]: 59.8 µM (inactive)
GI50 [58]: > 100 µM (inactive)
GI50 [25]: > 100 µM (inactive)
GI50 [26]: > 100 µM (inactive)
GI50 [28]: > 100 µM (inactive)
GI50 [29]: > 100 µM (inactive)
GI50 [30]: > 100 µM (inactive)
GI50 [31]: > 100 µM (inactive)
GI50 [32]: > 100 µM (inactive)
GI50 [33]: 76.9 µM (inactive)
GI50 [34]: > 100 µM (inactive)
GI50 [35]: > 100 µM (inactive)
GI50 [56]: > 100 µM (inactive)
GI50 [36]: > 100 µM (inactive)
GI50 [37]: > 100 µM (inactive)
GI50 [38]: > 100 µM (inactive)
GI50 [39]: > 100 µM (inactive)
GI50 [40]: > 100 µM (inactive)
GI50 [41]: > 100 µM (inactive)
GI50 [43]: > 100 µM (inactive)
GI50 [44]: > 100 µM (inactive)
GI50 [45]: > 100 µM (inactive)
GI50 [46]: 40 µM (inactive)
GI50 [47]: > 100 µM (inactive)
GI50 [57]: 0.0278 µM (active)
GI50 [48]: > 100 µM (inactive)
GI50 [50]: > 100 µM (inactive)
GI50 [51]: 16 µM (inactive)
GI50 [52]: > 100 µM (inactive)
GI50 [53]: > 100 µM (inactive)

NC(=O)/C=C/C(=O)O
GI50 [1]: > 5000 µM (inactive)
GI50 [3]: > 5000 µM (inactive)
GI50 [4]: > 5000 µM (inactive)
GI50 [6]: > 5000 µM (inactive)
GI50 [7]: > 5000 µM (inactive)
GI50 [8]: > 5000 µM (inactive)
GI50 [9]: > 5000 µM (inactive)
GI50 [10]: > 5000 µM (inactive)
GI50 [13]: > 5000 µM (inactive)
GI50 [14]: > 5000 µM
GI50 [15]: > 5000 µM (inactive)
GI50 [16]: > 5000 µM (inactive)
GI50 [17]: > 5000 µM (inactive)
GI50 [18]: > 5000 µM (inactive)
GI50 [19]: > 5000 µM (inactive)
GI50 [20]: > 5000 µM (inactive)
GI50 [21]: > 5000 µM (inactive)
GI50 [23]: > 5000 µM (inactive)
GI50 [24]: > 5000 µM (inactive)
GI50 [58]: > 5000 µM (inactive)
GI50 [25]: > 5000 µM (inactive)
GI50 [26]: > 5000 µM (inactive)
GI50 [27]: > 5000 µM (inactive)
GI50 [28]: > 5000 µM (inactive)
GI50 [29]: > 5000 µM (inactive)
GI50 [30]: > 5000 µM (inactive)
GI50 [31]: > 5000 µM (inactive)
GI50 [55]: > 5000 µM (inactive)
GI50 [33]: > 5000 µM (inactive)
GI50 [34]: > 5000 µM (inactive)
GI50 [35]: > 5000 µM (inactive)
GI50 [56]: > 5000 µM (inactive)
GI50 [36]: > 5000 µM (inactive)
GI50 [37]: > 5000 µM (inactive)
GI50 [38]: > 5000 µM (inactive)
GI50 [39]: > 5000 µM (inactive)
GI50 [40]: > 5000 µM (inactive)
GI50 [41]: > 5000 µM (inactive)
GI50 [42]: > 5000 µM (inactive)
GI50 [43]: > 5000 µM (inactive)
GI50 [44]: > 5000 µM (inactive)
GI50 [46]: > 5000 µM (inactive)
GI50 [47]: > 5000 µM (inactive)
GI50 [57]: > 5000 µM (inactive)
GI50 [48]: > 5000 µM (inactive)
GI50 [49]: > 5000 µM (inactive)
GI50 [50]: > 5000 µM (inactive)
GI50 [51]: > 5000 µM (inactive)
GI50 [52]: > 5000 µM (inactive)
GI50 [53]: > 5000 µM (inactive)
